Measured values as given in patent publication US20150094321A1, “COMBINATION” (GlaxoSmithKline LLC, priority 2009, published 2015).

Experiments:
Assay in all cases: Cell line proliferation study
Type in all cases: cell-based, human
WiDr = conditions: colon; for IC50: Homo sapiens, 72 hours, read-out: gIC50
Experimental: (§1) In a separate study, combination drug tests with Compounds A and B were conducted using a panel of cell lines from human colon cancers (n=26), lung cancers (n=15) and pancreatic cancers (n=6). Cell lines were obtained from commercial vendors (ATCC and DSMZ). Cell lines were grown in RPMI-1640 supplemented with 2 mM glutamine, 1 mM sodium pyruvate and 10% fetal bovine serum (except for Capan-1 and HuP-T4 which were grown with 20% fetal bovine serum) and maintained at 37° C. and 5% CO2 in a humid incubator. Assays were performed in 384 well microtiter plates with optimum seeding densities for each cell line.
(§2) The test compounds were prepared as 10 mM stocks in 100% DMSO. Further dilutions of the compounds were made in DMSO. Compound A was diluted horizontally in a separate 96 well microtiter plate in rows D-G using a 3-fold dilution series for 10 dilution points. Compound B was similarly diluted horizontally in a 96 well microtiter plate in rows B-E using a 3-fold dilution series for 10 dilution points.
(§3) The two compounds were combined using equal volumes from each drug plate into cell culture media. […] Both Compound A and Compound B were individually titrated in rows B and C (for Compound B) and rows F and G (for Compound A) of the merged drug plate.
(§4) A 1:10 dilution of the drugs was performed in cell culture media prior to addition to the cells.
(§5) The final concentration range for the test compounds was 250 to 0.013 nM for Compound A and 1000 to […] for Compound B. The positive control consisted of culture media with DMSO at 0.1% and cells. The negative control consisted of culture media with DMSO at 0.1%. The cell lines were incubated at 37° C., 5% CO2 in humid air for 72 hours. Cell proliferation was measured using the CellTiter Glo (Promega) reagent according to the manufacturer's protocol. The plates are treated with CellTiter Glo solution and are analyzed for RLU (relative light units) using a Molecular Devices SpectraMax M5 plate reader.
(§6) The percent intensity values were used in model 205 of XLfit (IDBS, Inc.) in Microsoft Excel to calculate gIC50 values using a 4 parameter logistical fit. The midpoint of the growth window (the gIC50) falls half way between the number of cells at the time of compound addition (T=0) and the growth of control cells treated with DMSO at 72 hrs. The number of cells at time zero (T0) is divided from the intensity value at the bottom of the response curve (Ymin) to generate a measure for cell death (Ymin/T0). A value below 1 for Ymin/T0 indicates stronger potency to induce cell death with the treatment when compared to higher values.
(§7) 1. Excess over Highest Single Agent (EOHSA)—This was calculated as described above (Borisy et al, 2003; FDA 21 CFR 300.50) 2. Bliss synergy—A second criterion often used to determine combination synergy is evaluating the excess inhibition over Bliss independence or “additivity” (Bliss and Mexico, 1939). The model assumes a combined response of the two compounds independently using the following:
(§8) Where Ea is the effect (or percent inhibition) of Compound A and Eb is the effect of Compound B. The resulting effect of the combination of the two compounds is compared to their predicted additivity by Bliss and a synergy score is generated for each dose along the response curve. 3. Combination Index (CI)—A third criterion traditionally used for the evaluation of synergy is Combination Index (CI) derived from the Chou and Talalay (1984). The following equation is a model used for compounds that behave with different mechanisms of action (mutually non-exclusive formula). This was calculated as described above.
(§9) For EOHSA and Bliss Synergy measures, a score is generated for each dose along the response curve. These scores reflect the percentage over the highest agent (EOHSA) or percentage greater than Bliss additivity, depending on which metric is being interpreted. […]

HCT8 = conditions: HCT8, colon; for IC50: Homo sapiens, HCT-8, 72 hours, read-out: gIC50
Experimental: as §1, §2, §3, §4, §5, §6, §7, §8, §9

SW837 = conditions: SW837, colon; for IC50: Homo sapiens, 72 hours, read-out: gIC50
Experimental: as §1, §2, §3, §4, §5, §6, §7, §8, §9

SW48 = conditions: SW48, colon; for IC50: Homo sapiens, 72 hours, read-out: gIC50
Experimental: as §1, §2, §3, §4, §5, §6, §7, §8, §9

KM12 = conditions: KM12, colon; for IC50: Homo sapiens, 72 hours, read-out: gIC50
Experimental: as §1, §2, §3, §4, §5, §6, §7, §8, §9

HT29 = conditions: HT29, colon; for IC50: Homo sapiens, HT-29, 72 hours, read-out: gIC50
Experimental: as §1, §2, §3, §4, §5, §6, §7, §8, §9

SW900 = conditions: SW900, lung; for IC50: Homo sapiens, 72 hours, read-out: gIC50
Experimental: as §1, §2, §3, §4, §5, §6, §7, §8, §9

HPAFII = conditions: pancreas; for IC50: Homo sapiens, HPAF-II, 72 hours, read-out: gIC50
Experimental: as §1, §2, §3, §4, §5, §6, §7, §8, §9

SW1990 = conditions: SW1990, pancreas; for IC50: Homo sapiens, 72 hours, read-out: gIC50
Experimental: as §1, §2, §3, §4, §5, §6, §7, §8, §9

NCIH1299 = conditions: NCIH1299, lung; for IC50: Homo sapiens, NCI-H1299, 72 hours, read-out: gIC50
Experimental: as §1, §2, §3, §4, §5, §6, §7, §8, §9

NCIH2122 = conditions: NCIH2122, lung; for IC50: Homo sapiens, NCI-H2122, 72 hours, read-out: gIC50
Experimental: as §1, §2, §3, §4, §5, §6, §7, §8, §9

SW403 = conditions: SW403, colon; for IC50: Homo sapiens, SW-403, 72 hours, read-out: gIC50
Experimental: as §1, §2, §3, §4, §5, §6, §7, §8, §9

SW480 = conditions: SW480, colon; for IC50: Homo sapiens, 72 hours, read-out: gIC50
Experimental: as §1, §2, §3, §4, §5, §6, §7, §8, §9

NCIH1563 = conditions: NCIH1563, lung; for IC50: Homo sapiens, NCI-H1563, 72 hours, read-out: gIC50
Experimental: as §1, §2, §3, §4, §5, §6, §7, §8, §9

T84 = conditions: T84, colon; for IC50: Homo sapiens, 72 hours, read-out: gIC50
Experimental: as §1, §2, §3, §4, §5, §6, §7, §8, §9

Row | IC50 (HCT8) [nM] | IC50 (SW837) [nM] | IC50 (SW48) [nM] | IC50 (HT29) [nM] | IC50 (SW900) [nM] | IC50 (SW1990) [nM] | SMILES | IC50 (WiDr) [nM] | Ymin/T0 (WiDr) | Ymin/T0 (HCT8) | Ymin/T0 (SW837) | Ymin/T0 (SW48) | IC50 (KM12) [nM] | Ymin/T0 (KM12) | Ymin/T0 (HT29) | Ymin/T0 (SW900) | IC50 (HPAFII) [nM] | Ymin/T0 (HPAFII) | Ymin/T0 (SW1990) | IC50 (NCIH1299) [nM] | Ymin/T0 (NCIH1299) | also measured
1 | 18.3 | 153 | 8.16 | 3.6 | 15 | 94 | CC(=O)Nc1cccc(-n2c(=O)n(C3CC3)c(=O)c3c(Nc4ccc(I)cc4F)n(C)c(=O)c(C)c32)c1 [Compound A, N-{3-[3-cyclopropyl-5-(2-fluoro-4-iodo-phenylamino)-6,8-dimethyl-2,4,7-trioxo-3,4,6,7-tetrahydro-2H-pyrido[4,3-d]pyrimidin-1-yl]phenyl}acetamide] | 1.85 | 3.94 | 16.70 | 25.58 | 13.02 | 28.7 | 19.1 | 11.99 | −5.9 | 15.9 | −0.8 | 17.1 | 24 | 45.9 | IC50 (NCIH2122): 30 nM; Ymin/T0 (NCIH2122): −11.8; IC50 (SW403): 4.6 nM; Ymin/T0 (SW403): 3.02; IC50 (SW480): 326 nM; Ymin/T0 (SW480): 29.37; IC50 (NCIH1563): > 250 nM; Ymin/T0 (NCIH1563): 26.6; IC50 (T84): 139 nM; Ymin/T0 (T84): 12.44
2 | 758 | > 1000 | 428 | 780 | > 1000 | > 1000 | Cn1ncc(Cl)c1-c1cc(C(=O)N[C@H](CN)Cc2ccc(F)c(F)c2)oc1Cl [Compound B, N-{(1S)-2-amino-1-[(3,4-difluorophenyl)methyl]ethyl}-5-chloro-4-(4-chloro-1-methyl-1H-pyrazol-5-yl)-2-furancarboxamide] | 700 | 5.24 | 20.44 | 63.88 | 11.68 | 928 | 13.9 | 11.64 | 47.3 | > 1000 | 31.2 | 36.8 | > 1000 | 58.1 | IC50 (NCIH2122): > 1000 nM; Ymin/T0 (NCIH2122): 11.4; IC50 (SW403): 74.3 nM; Ymin/T0 (SW403): 8.82; IC50 (SW480): > 1000 nM; Ymin/T0 (SW480): 11.87; IC50 (NCIH1563): 65 nM; Ymin/T0 (NCIH1563): 27.6; IC50 (T84): 427 nM; Ymin/T0 (T84): −5.58
